Read-outs that look alike come from different tables or passages of the source.
Key:
[1] = biological target: T1, Recombinant BTK^WT kinase (Homo sapiens, UniProt Q06187); test: BTK WT binding affinity (LanthaScreen TR-FRET); details: Kinase Tracer 236, 5 h incubation
T1 construct: purchased Invitrogen
Outline: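 IC50 obtained by variable-slope fit of TR-FRET signal (ex 340 nm; em 615 and 665 nm) versus inhibitor concentration. Reaction held for 5 h in LanthaScreen Kinase Buffer A with 2.5 nM His-tagged BTK^WT, 15 nM Kinase Tracer 236 and 2 nM Eu anti-His antibody.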

[2] = biological target: T2, Recombinant BTK^C481S kinase (Homo sapiens, UniProt Q06187, C481S); test: BTK C481S binding affinity (LanthaScreen TR-FRET); details: Kinase Tracer 236, 5 h incubation
T2 construct: purchased SignalChem
T2 sequence (Q06187 whole entry C481S): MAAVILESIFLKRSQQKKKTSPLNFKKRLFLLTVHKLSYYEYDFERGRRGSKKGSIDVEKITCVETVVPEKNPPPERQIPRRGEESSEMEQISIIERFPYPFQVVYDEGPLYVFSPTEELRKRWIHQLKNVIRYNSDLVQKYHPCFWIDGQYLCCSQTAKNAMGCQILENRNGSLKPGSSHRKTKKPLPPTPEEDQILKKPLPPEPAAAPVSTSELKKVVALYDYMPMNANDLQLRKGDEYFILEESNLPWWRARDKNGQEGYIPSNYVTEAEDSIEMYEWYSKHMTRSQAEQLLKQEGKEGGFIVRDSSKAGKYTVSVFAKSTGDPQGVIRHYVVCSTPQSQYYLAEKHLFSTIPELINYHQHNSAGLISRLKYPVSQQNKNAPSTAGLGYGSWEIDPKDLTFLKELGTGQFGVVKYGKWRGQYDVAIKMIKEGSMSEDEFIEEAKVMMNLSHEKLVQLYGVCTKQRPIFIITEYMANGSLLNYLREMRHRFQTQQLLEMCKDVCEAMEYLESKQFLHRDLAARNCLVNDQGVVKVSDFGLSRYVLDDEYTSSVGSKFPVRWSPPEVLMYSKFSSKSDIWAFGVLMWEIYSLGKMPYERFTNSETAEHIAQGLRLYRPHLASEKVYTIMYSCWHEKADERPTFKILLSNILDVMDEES
Outline: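 BTK C481S tracer-displacement TR-FRET: 5 nM His-tagged kinase, 2 nM Eu anti-His antibody and 30 nM Kinase Tracer 236 incubated with titrated inhibitor for 5 h in Kinase Buffer A. Read at 340 nm excitation, 615/665 nm emission; IC50 from variable-slope log[inhibitor]–response fit.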

[3] = test system: OCI-Ly10 human DLBCL cells; test: OCI-Ly10 anti-proliferative activity (Resazurin); type: cell-based; details: OCI-Ly10 cells, 72 h compound treatment, Resazurin, read-out: Proliferation Assay OCI-Ly10-20% FBS
Outline: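 A separate untreated plate gave the Day 0 reading, measured by Resazurin fluorescence at 590 nm after 5 h. The average Day 0 value was subtracted from each treated well, and results were expressed as percent of DMSO control. IC50 values came from a log[Inhibitor] vs response Variable Slope fit in Graphpad prism.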

Recombinant EGFR = biological target: T3, Recombinant EGFR (Homo sapiens, UniProt P00533); test: EGFR binding affinity (LanthaScreen TR-FRET); details: Kinase Tracer 199, 5 h incubation
T3 construct: purchased Invitrogen
T3 sequence (P00533 25-1210): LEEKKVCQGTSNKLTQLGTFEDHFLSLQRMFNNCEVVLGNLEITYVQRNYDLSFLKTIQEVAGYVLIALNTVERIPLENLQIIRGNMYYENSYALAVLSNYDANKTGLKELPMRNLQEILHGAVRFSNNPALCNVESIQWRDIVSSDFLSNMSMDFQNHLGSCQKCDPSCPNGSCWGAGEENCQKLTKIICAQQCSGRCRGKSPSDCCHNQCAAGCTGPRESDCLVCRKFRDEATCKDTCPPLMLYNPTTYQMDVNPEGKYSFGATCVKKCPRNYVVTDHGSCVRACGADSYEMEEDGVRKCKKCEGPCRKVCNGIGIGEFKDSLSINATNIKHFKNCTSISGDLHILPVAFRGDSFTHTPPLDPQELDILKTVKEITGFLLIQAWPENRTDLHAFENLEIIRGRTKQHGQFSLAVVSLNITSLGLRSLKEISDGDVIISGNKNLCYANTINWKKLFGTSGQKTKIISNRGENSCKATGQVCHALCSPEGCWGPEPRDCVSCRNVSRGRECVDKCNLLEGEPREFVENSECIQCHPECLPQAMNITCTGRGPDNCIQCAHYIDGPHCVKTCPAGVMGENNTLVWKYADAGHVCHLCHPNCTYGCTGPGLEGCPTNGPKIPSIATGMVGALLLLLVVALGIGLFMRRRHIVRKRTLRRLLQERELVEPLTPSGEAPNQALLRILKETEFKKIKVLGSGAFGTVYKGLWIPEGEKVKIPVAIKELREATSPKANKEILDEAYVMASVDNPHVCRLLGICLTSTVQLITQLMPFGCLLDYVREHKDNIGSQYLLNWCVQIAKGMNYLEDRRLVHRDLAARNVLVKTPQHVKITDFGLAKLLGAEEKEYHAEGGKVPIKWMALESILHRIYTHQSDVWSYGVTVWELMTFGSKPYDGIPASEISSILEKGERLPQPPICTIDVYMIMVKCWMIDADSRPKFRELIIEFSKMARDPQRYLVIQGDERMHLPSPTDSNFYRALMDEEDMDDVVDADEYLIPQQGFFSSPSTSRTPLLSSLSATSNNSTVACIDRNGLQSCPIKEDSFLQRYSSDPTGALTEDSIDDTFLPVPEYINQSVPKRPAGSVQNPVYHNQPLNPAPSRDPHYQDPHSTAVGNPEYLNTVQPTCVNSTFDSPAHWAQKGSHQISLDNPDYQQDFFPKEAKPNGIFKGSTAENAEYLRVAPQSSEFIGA
Outline: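 Compounds were titrated against recombinant EGFR and binding was followed by LanthaScreen time-resolved FRET.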

T1 sequence (Q06187 whole entry): as the sequence (Q06187 whole entry C481S) above, with S481C counted along it

Row | IC50 [1] [nM] | IC50 [2] [nM] | IC50 ([3]; Homo sapiens, OCI-Ly10, 72 h) [nM] | IC50 (Recombinant EGFR) [nM] | IC50 [3] [nM] | Compound
1 | 10 to 100 | < 10 | < 10 | > 10000 |  | COc1ccc(F)cc1C(=O)NCc1ccc(-c2nn(C(C3CCOCC3)C(F)(F)F)c(N)c2C(N)=O)cc1 (stereo not shown) [Example 184, 5-amino-3-[4-[[(5-fluoro-2-methoxy-benzoyl)amino]methyl]phenyl]-1-(2,2,2-trifluoro-1-tetrahydropyran-4-yl-ethyl)pyrazole-4-carboxamide]
2 | < 10 | < 10 | 100 to 1000 | 1000 to 10000 |  | COc1ccc(F)cc1C(=O)NCc1ccc(-c2nn(C3CCOCC3)c(N)c2C(N)=O)c(F)c1F [Example 142, 5-amino-3-[2,3-difluoro-4-[[(5-fluoro-2-methoxy-benzoyl)amino]methyl]phenyl]-1-tetrahydropyran-4-yl-pyrazole-4-carboxamide]
3 | 100 to 1000 | 10 to 100 | 1000 to 10000 | 1000 to 10000 |  | COc1ccc(F)cc1C(=O)NCc1ccc(-c2nn(C3(C(F)(F)F)CCOCC3)c(N)c2C(N)=O)cc1 [Example 190, 5-Amino-3-[4-[[(5-fluoro-2-methoxy-benzoyl)amino]methyl]phenyl]-1-[4-(trifluoromethyl)tetrahydropyran-4-yl]pyrazole-4-carboxamide]
4 | < 10 | < 10 | 10 to 100 | 1000 to 10000 |  | COc1ccc(F)cc1C(=O)NCc1ccc(-c2nn(C3CCOC3)c(N)c2C(N)=O)cc1 (stereo not shown) [Example 114, 5-amino-3-[4-[[(5-fluoro-2-methoxy-benzoyl)amino]methyl]phenyl]-1-tetrahydrofuran-3-yl-pyrazole-4-carboxamide]
5 | 10 to 100 | 10 to 100 | 100 to 1000 | 1000 to 10000 |  | COc1ccc(F)cc1C(=O)NCc1ccc(-c2nn(C(C3CCOC3)C(F)(F)F)c(N)c2C(N)=O)cc1 (mixture of isomers) [Example 175, 5-amino-3-[4-[[(5-fluoro-2-methoxy-benzoyl)amino]methyl]phenyl]-1-(2,2,2-trifluoro-1-tetrahydrofuran-3-yl-ethyl)pyrazole-4-carboxamide]
6 | 10 to 100 | < 10 | 10 to 100 | 1000 to 10000 |  | COc1ccc(F)cc1C(=O)NCc1ccc(-c2nn(C(C)C(F)(F)F)c(N)c2C(N)=O)c(F)c1F (stereo not shown) [Example 165, 5-amino-3-[2,3-difluoro-4-[[(5-fluoro-2-methoxy-benzoyl)amino]methyl]phenyl]-1-(2,2,2-trifluoro-1-methyl-ethyl)pyrazole-4-carboxamide]

The next lines start with the molecule.

Row | Compound | IC50 [1] [nM] | IC50 [2] [nM] | IC50 ([3]; Homo sapiens, OCI-Ly10, 72 h) [nM] | IC50 (Recombinant EGFR) [nM] | IC50 [3] [nM]
7 | COc1ccccc1C(=O)NCc1ccc(-c2nn([C@H]3CC[C@H](Cl)C3)c(N)c2C(N)=O)cc1 (relative stereo) [Example 37, 5-amino-1-[(1S*,3S*)-3-chlorocyclopentyl]-3-[4-[[(2-methoxybenzoyl)amino]methyl]phenyl]pyrazole-4-carboxamide] | < 10 | < 10 | 10 to 100 | 100 to 1000 | 
8 | COc1ccccc1C(=O)NCc1ccc(-c2nn(-c3cccc(F)c3)c(N)c2C(N)=O)cc1 [Example 32, 5-amino-1-(3-fluorophenyl)-3-[4-[[(2-methoxybenzoyl)amino]methyl]phenyl]pyrazole-4-carboxamide] | < 10 | < 10 | 10 to 100 | 100 to 1000 | 
9 | COc1ccccc1C(=O)NCc1ccc(-c2nn(C3CCOC3C)c(N)c2C(N)=O)cc1 (single isomer, unassigned) [Example 77, 5-amino-3-[4-[[(2-methoxybenzoyl)amino]methyl]phenyl]-1-[2-methyltetrahydrofuran-3-yl]pyrazole-4-carboxamide] | < 10 | < 10 |  | 100 to 1000 | 10 to 100
10 | COCOCCn1nc(-c2ccc(CNC(=O)c3ccccc3OC)cc2)c(C(N)=O)c1N [Example 7, 5-amino-3-[4-[[(2-methoxybenzoyl)amino]methyl]phenyl]-1-[2-(methoxymethoxy)ethyl]pyrazole-4-carboxamide] | 100 to 1000 | 10 to 100 | 100 to 1000 | > 10000 | 
11 | COc1ccccc1C(=O)NCc1ccc(-c2nn([C@@H]3CCOC3)c(N)c2C(N)=O)cc1 [Example 83b, 5-amino-3-[4-[[(2-methoxybenzoyl)amino]methyl]phenyl]-1-[(3R)-tetrahydrofuran-3-yl]pyrazole-4-carboxamide] | < 10 | < 10 | 10 to 100 | 1000 to 10000 | 
12 | COc1ccc(F)cc1C(=O)NCc1ccc(-c2nn(C3CCCOC3)c(N)c2C(N)=O)c(F)c1 (stereo not shown) [Example 107, 5-amino-3-[2-fluoro-4-[[(5-fluoro-2-methoxy-benzoyl)amino]methyl]phenyl]-1-tetrahydropyran-3-yl-pyrazole-4-carboxamide] | < 10 | < 10 | 10 to 100 | > 10000 | 
13 | COc1ccccc1C(=O)NCc1ccc(-c2nn(C3CCC(C(=O)N(C)C)CC3)c(N)c2C(N)=O)cc1 (single isomer, unassigned) [Example 57a, 5-amino-1-[4-(dimethylcarbamoyl)cyclohexyl]-3-[4-[[(2-methoxybenzoyl)amino]methyl]phenyl]pyrazole-4-carboxamide] | < 10 | < 10 |  | 100 to 1000 | 10 to 100
14 | COc1ccccc1C(=O)NCc1ccc(-c2nn(C3CCOCC3)c(N)c2C(N)=O)cc1 [Example 64, 5-amino-3-[4-[[(2-methoxybenzoyl)amino]methyl]phenyl]-1-tetrahydropyran-4-yl-pyrazole-4-carboxamide] | < 10 | < 10 | 10 to 100 | 100 to 1000 | 
15 | COc1ccccc1C(=O)NCc1ccc(-c2nn(C3CC(C)OC(C)C3)c(N)c2C(N)=O)cc1 (stereo not shown) [Example 104, 5-amino-1-(2,6-dimethyltetrahydropyran-4-yl)-3-[4-[[(2-methoxybenzoyl)amino]methyl]phenyl]pyrazole-4-carboxamide] | 10 to 100 | < 10 | 100 to 1000 | 1000 to 10000 | 
16 | COc1ccccc1C(=O)NCc1ccc(-c2nn(CCO)c(N)c2C(N)=O)cc1 [Example 31, 5-Amino-1-(2-hydroxyethyl)-3-[4-[[(2-methoxybenzoyl)amino]methyl]phenyl]pyrazole-4-carboxamide] | 10 to 100 | 10 to 100 | 1000 to 10000 | > 10000 | 
17 | COc1ccccc1C(=O)NCc1ccc(-c2nn(C3CC(C)(C)OC(C)(C)C3)c(N)c2C(N)=O)cc1 [Example 90, 5-amino-3-[4-[[(2-methoxybenzoyl)amino]methyl]phenyl]-1-(2,2,6,6-tetramethyltetrahydropyran-4-yl)pyrazole-4-carboxamide] | 10 to 100 | < 10 | 100 to 1000 | 1000 to 10000 | 
18 | COc1ccccc1C(=O)NCc1ccc(-c2nn(CC3CCCCC3)c(N)c2C(N)=O)cc1 [Example 17, 5-amino-1-(cyclohexylmethyl)-3-[4-[[(2-methoxybenzoyl)amino]methyl]phenyl]pyrazole-4-carboxamide] | < 10 | < 10 | 10 to 100 | 100 to 1000 | 
19 | COc1ccccc1C(=O)NCc1ccc(-c2nn(-c3ccc(CO)cc3)c(N)c2C(N)=O)cc1 [Example 49, 5-amino-1-[4-(hydroxymethyl)phenyl]-3-[4-[[(2-methoxybenzoyl)amino]methyl]phenyl]pyrazole-4-carboxamide] | < 10 | < 10 | 10 to 100 | 100 to 1000 | 

From US11826351B2, “Compounds useful as kinase inhibitors” (Loxo Oncology, Inc., priority 2015, dated 2023)
